Results as given in patent US6461997B1, “Triazole sulfones having herbicidal activity” (Monsanto Technology LLC, priority 1999, dated 2002).

Key:
SORVU (shattercane) [1] = experiment: Pre-emergence herbicidal activity, warm season; format: in vivo, Sorghum vulgare; conditions: GR80 = lowest tested rate (300, 100, 30, 10 g/ha) with 80% or greater inhibition; approx. 14 days after treating; 30/21° C.
How it was run: (§1)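 GR80 values derive from percent inhibition relative to untreated plants, read roughly 14 days after sowing and pre-emergence soil-surface treatment (compound in 50:50 acetone/water; rates typically 10, 30, 100, 300 g/ha). Warm-season weeds grew at 30/21° C day/night, cool-season ones at 18/13° C; an asterisk marks activity without reaching 80% at the highest rate.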

[2] = tested on: VERPE (creeping speedwell); experiment: Pre-emergence herbicidal activity, cool season; format: in vivo, Veronica persicaria; conditions: lowest tested rate with 80% or greater inhibition; rates 300, 100, 30, 10 g/ha; about 14 days
How it was run: as §1

SOLNI (black nightshade) = experiment: Pre-plant incorporated (PPI) herbicidal activity, warm season; format: in vivo, Solanum nigrum; conditions: for PPI activity (GR80) SOLNI: pre-plant incorporated, GR80 = lowest tested rate with 80% or greater inhibition, approx. 14 days after treating, 30/21° C.
Experimental: (§2) In another set of tests, the pre-plant incorporated (PPI) activity of compounds of this invention was evaluated on the same species as for the pre-emergence tests described above. In the PPI tests the following procedure, designed to simulate PPI application, was used.
(§3) A pre-prepared topsoil mixture (described above) was placed in a pot and compacted to a depth of 1.0 to 1.25 cm from the top of the pot. Seeds of each of several monocotyledonous and dicotyledonous annual plant species were placed on top of the soil. A sufficient quantity of soil to cover the seeds and level fill the pot was weighed into an open container. A known amount of the test compound was dissolved or suspended in an organic solvent and applied by spraying to this cover soil. The cover soil was thoroughly mixed to distribute the test compound throughout the cover soil, and was then applied as a cover layer over the seeds. Untreated soil was used as a cover layer for control pots. After treatment the plants were placed in a greenhouse where they received 0.64 cm of overhead irrigation. All subsequent watering consisted of a light overhead mist and/or subirrigation as needed for germination and growth. Tables 9 and 10 below relate to warm season plant species which were placed after pre-emergence treatment in a greenhouse with a 30/21° C. day/night temperature regime. Tables 11 and 12 below relates to cool season plant species placed after pre-emergence treatment in a greenhouse or growth chamber with an 18/13° C. day/night temperature regime. Only the compounds of Examples 1, 6, 8, 11, 13 and 15-20 were included in PPI tests.
(§4) Approximately 14 days after planting and treating, the plants were observed and herbicidal efficacy recorded as percent inhibition by comparison with untreated plants.

[3] = tested on: CHEAL (common lambsquarters); experiment: as above; format: in vivo, Chenopodium album; conditions: for Percent inhibition CHEAL: PPI application; for PPI activity (GR80) CHEAL: pre-plant incorporated, GR80 = lowest tested rate with 80% or greater inhibition, approx. 14 days after treating, 30/21° C.
Experimental: as §2, §3, §4

[4] = tested on: PANMI (wild proso millet); experiment: as above; format: in vivo, Panicum miliaceum; conditions: for PPI activity GR80, PANMI: pre-plant incorporated, lowest tested rate with 80% or greater inhibition, about 14 days
Experimental: as §2, §3, §4

SORVU (shattercane) [5] = experiment: as above; format: in vivo, Sorghum vulgare; conditions: for PPI activity GR80, SORVU: pre-plant incorporated, lowest tested rate with 80% or greater inhibition, about 14 days
Experimental: as §2, §3, §4

corn (ZEAMX) = experiment: Selectivity test, PPI, warm season crop; format: in vivo, Zea mays; conditions: PPI application
Experimental: as §3, §4
Additional pre-emergence and PPI tests were conducted by the procedures described above, on warm and cool season weed species in the presence of crop species, to assess herbicidal selectivity. Crop species included in warm season tests were corn (Zea mays, ZEAMX), rice (Oryza sativa, ORYSA) and soybean (Glycine max, GLYMX). Crop species included in cool season tests were wheat (Triticum aestivum, TRZAW), barley (Hordeunm vulgare, HORVX) and oilseed rape (Brassica napus, BRSNS).
Tables 15 and 16 relate to pre-emergence and PPI tests respectively on warm season species. Table 17 relates to pre-emergence tests on cool season species.

Row | Compound | Pre-emergence activity (GR80) SORVU (SORVU (shattercane) [1]) | Pre-emergence activity GR80, VERPE [2] | Percent inhibition SOLNI (SOLNI (black nightshade); PPI application, 10 g/ha) | Percent inhibition SOLNI (SOLNI (black nightshade); PPI application, 100 g/ha) | Percent inhibition SOLNI (SOLNI (black nightshade); PPI application, 300 g/ha) | Percent inhibition SOLNI (SOLNI (black nightshade); PPI application, 900 g/ha) | PPI activity (GR80) SOLNI (SOLNI (black nightshade)) | PPI activity (GR80) CHEAL [3] | Percent inhibition PANMI ([4]; PPI application, 30 g/ha) | Percent inhibition PANMI ([4]; PPI application, 100 g/ha) | Percent inhibition PANMI ([4]; PPI application, 300 g/ha) | Percent inhibition PANMI ([4]; PPI application, 900 g/ha) | PPI activity GR80, PANMI [4] | Percent inhibition SORVU (SORVU (shattercane) [5]; PPI application, 10 g/ha) | Percent inhibition SORVU (SORVU (shattercane) [5]; PPI application, 30 g/ha) | Percent inhibition SORVU (SORVU (shattercane) [5]; PPI application, 100 g/ha) | Percent inhibition SORVU (SORVU (shattercane) [5]; PPI application, 300 g/ha) | Percent inhibition SORVU (SORVU (shattercane) [5]; PPI application, 900 g/ha) | PPI activity GR80, SORVU (SORVU (shattercane) [5]) | Percent inhibition ZEAMX (corn (ZEAMX); 10 g/ha) | further results
1 | CCN(CC)C(=O)n1cnc(S(=O)(=O)C(F)(F)SCC(=O)OC)n1 [Example 11] | * (activity observed, at least at highest rate, but <80% inhibition) | 100 g/ha | 0% | 30% | 50% | 100% | 300 g/ha | 100 g/ha | 0% | 20% | 80% | 100% | * (activity observed, at least at highest rate, but <80% inhibition) | 0% | 0% | 10% | 65% | 100% | 300 g/ha | 0% | Percent inhibition SOLNI (SOLNI (black nightshade); PPI application, 30 g/ha): 0%; Percent inhibition CHEAL ([3]; 10 g/ha): 30%; Percent inhibition CHEAL ([3]; 30 g/ha): 60%; Percent inhibition CHEAL ([3]; 100 g/ha): 60%; Percent inhibition CHEAL ([3]; 300 g/ha): 100%; Percent inhibition CHEAL ([3]; 900 g/ha): 100%; Percent inhibition ZEAMX (corn (ZEAMX); 30 g/ha): 0%; Percent inhibition ZEAMX (corn (ZEAMX); 100 g/ha): 0%; Percent inhibition ZEAMX (corn (ZEAMX); 300 g/ha): 0%; Percent inhibition ZEAMX (corn (ZEAMX); 900 g/ha): 10%
2 | C=CCC(F)(F)S(=O)(=O)c1ncn(C(=O)N(CC)CC)n1 [Example 17, 1-(N,N-diethylcarbamoyl)-3-[(1,1-difluoro-3-butenyl)sulfonyl]-1,2,4-triazole] | 100 g/ha | 100 g/ha |  |  |  |  | 30 g/ha | 300 g/ha |  |  |  |  | 10 g/ha |  |  |  |  |  | * (activity observed, at least at highest rate, but <80% inhibition) |  | inhibition at 10 g/ha (SOLNI (black nightshade); Solanum nigrum, PPI application, 10 g/ha, read-out: Percent inhibition SOLNI): 0%; inhibition at 30 g/ha (SOLNI (black nightshade); Solanum nigrum, PPI application, 30 g/ha, read-out: Percent inhibition SOLNI): 0%; inhibition at 100 g/ha (SOLNI (black nightshade); Solanum nigrum, PPI application, 100 g/ha, read-out: Percent inhibition SOLNI): 80%; inhibition at 300 g/ha (SOLNI (black nightshade); Solanum nigrum, PPI application, 300 g/ha, read-out: Percent inhibition SOLNI): 70%; inhibition at 900 g/ha (SOLNI (black nightshade); Solanum nigrum, PPI application, 900 g/ha, read-out: Percent inhibition SOLNI): 100%; inhibition at 10 g/ha ([4]; Panicum miliaceum, PPI application, 10 g/ha, read-out: Percent inhibition PANMI): 60%; inhibition at 30 g/ha ([4]; Panicum miliaceum, PPI application, 30 g/ha, read-out: Percent inhibition PANMI): 100%; inhibition at 100 g/ha ([4]; Panicum miliaceum, PPI application, 100 g/ha, read-out: Percent inhibition PANMI): 100%; inhibition at 300 g/ha ([4]; Panicum miliaceum, PPI application, 300 g/ha, read-out: Percent inhibition PANMI): 100%; inhibition at 900 g/ha ([4]; Panicum miliaceum, PPI application, 900 g/ha, read-out: Percent inhibition PANMI): 100%; inhibition at 10 g/ha (SORVU (shattercane) [5]; Sorghum bicolor, PPI application, 10 g/ha, read-out: Percent inhibition SORVU): 20%; inhibition at 30 g/ha (SORVU (shattercane) [5]; Sorghum bicolor, PPI application, 30 g/ha, read-out: Percent inhibition SORVU): 70%; inhibition at 100 g/ha (SORVU (shattercane) [5]; Sorghum bicolor, PPI application, 100 g/ha, read-out: Percent inhibition SORVU): 100%; inhibition at 300 g/ha (SORVU (shattercane) [5]; Sorghum bicolor, PPI application, 300 g/ha, read-out: Percent inhibition SORVU): 100%; inhibition at 900 g/ha (SORVU (shattercane) [5]; Sorghum bicolor, PPI application, 900 g/ha, read-out: Percent inhibition SORVU): 100%; inhibition at 10 g/ha (corn (ZEAMX); Zea mays, 10 g/ha, read-out: Percent inhibition ZEAMX): 0%; inhibition at 30 g/ha (corn (ZEAMX); Zea mays, 30 g/ha, read-out: Percent inhibition ZEAMX): 0%; inhibition at 100 g/ha (corn (ZEAMX); Zea mays, 100 g/ha, read-out: Percent inhibition ZEAMX): 20%; inhibition at 300 g/ha (corn (ZEAMX); Zea mays, 300 g/ha, read-out: Percent inhibition ZEAMX): 30%; inhibition at 900 g/ha (corn (ZEAMX); Zea mays, 900 g/ha, read-out: Percent inhibition ZEAMX): 95%
3 | C=C(CC(F)(F)S(=O)(=O)c1ncn(C(=O)N(CC)CC)n1)C[Si](C)(C)C [Example 20] | 300 g/ha | [empty] | 0% | 0% | 30% | 100% | 100 g/ha | 30 g/ha | 20% | 100% | 65% | 100% | 100 g/ha | 0% | 0% | 30% | 40% | 100% | * (activity observed, at least at highest rate, but <80% inhibition) | 0% | Percent inhibition SOLNI (SOLNI (black nightshade); PPI application, 30 g/ha): 0%; Percent inhibition PANMI ([4]; PPI application, 10 g/ha): 0%; Percent inhibition ZEAMX (corn (ZEAMX); 30 g/ha): 0%; Percent inhibition ZEAMX (corn (ZEAMX); 100 g/ha): 0%; Percent inhibition ZEAMX (corn (ZEAMX); 300 g/ha): 20%; Percent inhibition ZEAMX (corn (ZEAMX); 900 g/ha): 40%
4 | CCN(CC)C(=O)n1cnc(S(=O)(=O)C(F)(F)C(F)F)n1 [Example 16] | 100 g/ha | 100 g/ha | 100% | 100% | 95% | 100% | 30 g/ha | 30 g/ha | 100% | 100% | 100% | 100% | 30 g/ha | 20% | 80% | 100% | 100% | 100% | 30 g/ha | 0% | Percent inhibition CHEAL ([3]; 10 g/ha): 100%; Percent inhibition CHEAL ([3]; 30 g/ha): 100%; Percent inhibition CHEAL ([3]; 100 g/ha): 100%; Percent inhibition CHEAL ([3]; 300 g/ha): 100%; Percent inhibition CHEAL ([3]; 900 g/ha): 100%; Percent inhibition PANMI ([4]; PPI application, 10 g/ha): 100%; Percent inhibition ZEAMX (corn (ZEAMX); 30 g/ha): 5%; Percent inhibition ZEAMX (corn (ZEAMX); 100 g/ha): 20%; Percent inhibition ZEAMX (corn (ZEAMX); 300 g/ha): 40%; Percent inhibition ZEAMX (corn (ZEAMX); 900 g/ha): 80%
